According to PMC3895372 (Nature communications, 2014):

Key:
m-calpain = molecular target: T1, m-calpain (Rattus norvegicus, UniProt Q07009); experiment: fluorogenic Suc-Leu-Tyr-AMC hydrolysis assay with purified enzyme; format: biochemical
T1 sequence (Q07009 20-700): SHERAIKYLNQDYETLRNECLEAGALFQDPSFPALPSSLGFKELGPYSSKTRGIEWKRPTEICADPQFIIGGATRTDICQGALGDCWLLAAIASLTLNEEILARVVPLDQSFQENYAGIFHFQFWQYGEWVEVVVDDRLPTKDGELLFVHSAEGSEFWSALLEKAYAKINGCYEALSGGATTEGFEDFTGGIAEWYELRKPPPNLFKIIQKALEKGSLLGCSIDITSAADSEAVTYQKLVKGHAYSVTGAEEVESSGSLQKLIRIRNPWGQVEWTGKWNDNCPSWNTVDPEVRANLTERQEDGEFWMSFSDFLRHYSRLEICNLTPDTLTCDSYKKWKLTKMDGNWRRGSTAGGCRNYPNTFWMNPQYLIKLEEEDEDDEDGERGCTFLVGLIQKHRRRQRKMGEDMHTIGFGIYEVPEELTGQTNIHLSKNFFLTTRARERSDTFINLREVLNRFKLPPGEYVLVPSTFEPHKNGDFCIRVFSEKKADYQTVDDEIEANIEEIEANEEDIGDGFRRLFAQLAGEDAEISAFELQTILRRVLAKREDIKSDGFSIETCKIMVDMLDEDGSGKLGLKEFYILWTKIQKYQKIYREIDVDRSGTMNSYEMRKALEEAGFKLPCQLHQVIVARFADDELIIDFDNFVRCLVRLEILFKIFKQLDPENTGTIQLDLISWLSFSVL
T1 sequence (Q64537 1-270 partner): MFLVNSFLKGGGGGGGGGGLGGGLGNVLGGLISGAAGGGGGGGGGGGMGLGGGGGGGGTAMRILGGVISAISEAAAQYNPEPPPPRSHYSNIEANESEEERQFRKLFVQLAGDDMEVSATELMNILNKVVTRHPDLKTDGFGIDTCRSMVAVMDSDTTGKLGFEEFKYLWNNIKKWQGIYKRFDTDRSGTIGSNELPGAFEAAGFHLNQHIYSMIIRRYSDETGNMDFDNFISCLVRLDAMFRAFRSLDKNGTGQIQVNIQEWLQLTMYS

µ-calpain = molecular target: T2, µ-calpain (Sus scrofa, UniProt P35750); experiment: as above; format: biochemical
T2 sequence (P35750 1-714): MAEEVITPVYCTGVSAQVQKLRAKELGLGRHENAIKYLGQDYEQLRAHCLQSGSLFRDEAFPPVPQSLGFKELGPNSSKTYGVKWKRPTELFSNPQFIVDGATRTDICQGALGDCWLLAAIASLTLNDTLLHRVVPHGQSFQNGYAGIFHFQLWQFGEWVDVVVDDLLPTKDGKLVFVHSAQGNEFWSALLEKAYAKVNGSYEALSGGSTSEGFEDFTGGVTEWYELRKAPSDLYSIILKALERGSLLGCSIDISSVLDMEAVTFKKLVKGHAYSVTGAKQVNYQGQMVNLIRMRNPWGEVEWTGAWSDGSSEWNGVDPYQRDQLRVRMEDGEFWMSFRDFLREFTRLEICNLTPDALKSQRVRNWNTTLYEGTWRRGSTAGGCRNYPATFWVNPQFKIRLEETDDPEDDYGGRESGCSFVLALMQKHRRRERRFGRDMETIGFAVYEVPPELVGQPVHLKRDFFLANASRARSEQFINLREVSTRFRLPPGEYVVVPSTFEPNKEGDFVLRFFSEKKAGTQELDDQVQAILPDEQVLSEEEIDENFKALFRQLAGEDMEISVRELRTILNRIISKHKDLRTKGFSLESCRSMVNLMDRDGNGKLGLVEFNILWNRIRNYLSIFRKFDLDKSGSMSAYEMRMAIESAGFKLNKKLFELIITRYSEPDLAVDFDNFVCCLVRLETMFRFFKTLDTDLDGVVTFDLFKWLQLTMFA
T2 sequence (P04574 1-266 partner): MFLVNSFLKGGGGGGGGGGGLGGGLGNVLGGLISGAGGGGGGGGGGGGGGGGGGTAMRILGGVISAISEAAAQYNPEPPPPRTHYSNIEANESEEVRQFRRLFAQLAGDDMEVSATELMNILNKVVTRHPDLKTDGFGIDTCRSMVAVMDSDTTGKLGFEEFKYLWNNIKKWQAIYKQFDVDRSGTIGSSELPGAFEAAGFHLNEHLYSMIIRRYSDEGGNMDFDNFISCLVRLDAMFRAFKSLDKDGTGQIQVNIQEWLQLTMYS

Ki (m-calpain): 0.025 µM
Ki (µ-calpain): 0.94 µM
SMILES: CC[C@H](NC(=O)[C@H](CC(C)C)NC(=O)OCc1ccccc1)C(=O)C(=O)NCc1cc(OC)cc(OC)c1 [mCalp-I]
